{"source": "paper PMC9762331", "about": "(Cancer Discovery, 2021)", "key": {"[1]": {"test_system": "SW48 isogenic PIK3CA-mutant and parental WT cells", "assay": "Potency comparison in SW48 isogenic mutant versus WT cells", "assay_type": "cell-based, human", "details": "for potency differential in mutant versus WT isogenic SW48 cells: viability EC50, mutant versus WT"}, "[2]": {"target": "H1047R mutant p110a in HCC1954 parental cells (Homo sapiens, UniProt P42336, H1047R)", "sequence (P42336 whole entry H1047R)": "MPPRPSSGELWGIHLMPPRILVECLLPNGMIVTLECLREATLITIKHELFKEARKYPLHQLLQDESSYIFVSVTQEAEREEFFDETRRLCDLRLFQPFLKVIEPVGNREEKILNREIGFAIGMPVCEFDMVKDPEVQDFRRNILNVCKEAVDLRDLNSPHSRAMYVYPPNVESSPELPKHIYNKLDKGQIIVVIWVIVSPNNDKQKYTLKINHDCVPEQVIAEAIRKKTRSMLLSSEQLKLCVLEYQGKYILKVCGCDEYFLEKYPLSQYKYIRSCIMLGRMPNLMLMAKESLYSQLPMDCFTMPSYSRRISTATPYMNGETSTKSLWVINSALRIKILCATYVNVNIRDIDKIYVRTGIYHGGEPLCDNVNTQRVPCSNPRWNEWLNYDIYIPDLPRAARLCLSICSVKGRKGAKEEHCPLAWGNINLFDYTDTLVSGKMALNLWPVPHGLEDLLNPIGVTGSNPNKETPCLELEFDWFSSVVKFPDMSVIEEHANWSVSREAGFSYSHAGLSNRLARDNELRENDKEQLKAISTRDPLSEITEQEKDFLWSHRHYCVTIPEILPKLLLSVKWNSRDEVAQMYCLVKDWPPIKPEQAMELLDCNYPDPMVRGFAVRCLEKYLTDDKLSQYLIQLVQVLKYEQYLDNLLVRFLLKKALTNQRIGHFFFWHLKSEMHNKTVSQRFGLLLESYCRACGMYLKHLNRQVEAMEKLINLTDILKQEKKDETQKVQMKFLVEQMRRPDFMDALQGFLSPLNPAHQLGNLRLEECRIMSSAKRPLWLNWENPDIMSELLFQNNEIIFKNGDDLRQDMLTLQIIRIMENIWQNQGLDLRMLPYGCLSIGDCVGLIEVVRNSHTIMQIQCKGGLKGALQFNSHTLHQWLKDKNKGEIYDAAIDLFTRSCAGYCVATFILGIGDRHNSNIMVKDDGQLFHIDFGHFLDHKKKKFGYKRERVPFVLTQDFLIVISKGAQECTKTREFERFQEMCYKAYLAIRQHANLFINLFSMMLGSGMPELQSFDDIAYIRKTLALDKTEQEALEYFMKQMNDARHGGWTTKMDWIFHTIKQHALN", "sequence (O00459 whole entry partner)": "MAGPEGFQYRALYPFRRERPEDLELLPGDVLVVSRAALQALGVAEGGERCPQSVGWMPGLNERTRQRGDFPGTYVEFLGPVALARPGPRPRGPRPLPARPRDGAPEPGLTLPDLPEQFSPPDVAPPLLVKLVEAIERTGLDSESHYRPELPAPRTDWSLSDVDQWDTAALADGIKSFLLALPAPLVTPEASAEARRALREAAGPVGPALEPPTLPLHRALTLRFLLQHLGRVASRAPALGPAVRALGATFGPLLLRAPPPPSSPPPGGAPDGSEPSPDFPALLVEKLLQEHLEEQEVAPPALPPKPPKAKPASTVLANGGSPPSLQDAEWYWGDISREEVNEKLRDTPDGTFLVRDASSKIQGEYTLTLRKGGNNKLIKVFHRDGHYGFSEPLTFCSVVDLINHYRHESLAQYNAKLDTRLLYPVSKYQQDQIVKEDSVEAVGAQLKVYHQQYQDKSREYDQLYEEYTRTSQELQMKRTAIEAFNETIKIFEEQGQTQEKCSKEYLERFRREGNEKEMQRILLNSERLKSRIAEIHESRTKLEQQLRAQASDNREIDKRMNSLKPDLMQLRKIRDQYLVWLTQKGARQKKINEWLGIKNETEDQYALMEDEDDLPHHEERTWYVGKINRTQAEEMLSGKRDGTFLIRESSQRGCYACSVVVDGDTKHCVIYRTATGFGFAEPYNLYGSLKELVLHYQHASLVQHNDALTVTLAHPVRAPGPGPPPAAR", "details": "24 hours, 500 nmol/L, P = 0.00016"}, "[3]": {"test_system": "p110a in PIK3CA-mutant breast cancer lines", "details": "treatment for 24 hours"}, "[4]": {"target": "p110a protein in PIK3CA H1047R-mutant HCC1954 cells (Homo sapiens, UniProt P42336, H1047R)", "sequence (P42336 whole entry H1047R)": "as the sequence (P42336 whole entry H1047R) above", "assay": "p110a Western blot, HCC1954 cells", "assay_type": "cell-based", "details": "treatment up to 8 hours"}, "[5]": {"target": "membrane-associated p110a in p110a-mutant HCC1954 xenograft model (Homo sapiens, UniProt P42336, H1047R)", "sequence (P42336 whole entry H1047R)": "as above", "assay": "Membrane-associated p110a in HCC1954 xenograft tumors", "assay_type": "in vivo, mouse"}, "[6]": {"test_system": "primary human hepatocytes", "assay": "Cytotoxicity in primary human hepatocytes", "assay_type": "cell-based", "details": "tested up to 100 μmol/L"}, "[7]": {"target": "p110a in PIK3CA-WT HDQ-P1 cells (Homo sapiens, UniProt P42336)", "sequence (P42336 whole entry)": "as the sequence (P42336 whole entry H1047R) above, with R1047H counted along it", "sequence (P27986 whole entry partner)": "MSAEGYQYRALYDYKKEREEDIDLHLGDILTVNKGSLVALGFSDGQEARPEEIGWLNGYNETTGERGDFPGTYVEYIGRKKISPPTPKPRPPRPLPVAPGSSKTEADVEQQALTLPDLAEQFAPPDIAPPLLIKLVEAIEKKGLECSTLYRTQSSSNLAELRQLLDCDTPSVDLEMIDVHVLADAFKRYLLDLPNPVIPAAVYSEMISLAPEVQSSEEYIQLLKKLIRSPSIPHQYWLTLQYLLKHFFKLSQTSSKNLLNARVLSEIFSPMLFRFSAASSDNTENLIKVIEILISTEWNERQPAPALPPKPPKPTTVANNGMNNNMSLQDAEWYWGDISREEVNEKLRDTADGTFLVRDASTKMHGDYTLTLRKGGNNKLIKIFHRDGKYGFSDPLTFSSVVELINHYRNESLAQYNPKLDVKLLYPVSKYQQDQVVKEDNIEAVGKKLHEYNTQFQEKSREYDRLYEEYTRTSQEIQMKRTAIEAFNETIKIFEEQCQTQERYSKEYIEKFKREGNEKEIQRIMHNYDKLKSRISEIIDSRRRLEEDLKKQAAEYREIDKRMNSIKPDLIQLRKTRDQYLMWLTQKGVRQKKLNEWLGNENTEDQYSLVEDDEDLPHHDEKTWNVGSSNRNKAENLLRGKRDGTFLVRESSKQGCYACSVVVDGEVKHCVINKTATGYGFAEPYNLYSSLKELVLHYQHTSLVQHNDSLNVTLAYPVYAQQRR", "details": "Western blot, 8 hours"}, "[8]": {"test_system": "pAKT in HER2-amplified PIK3CA-mutant cells (HCC1954, HCC202, MDA-MB-453)", "assay": "pAKT Western blot time course", "assay_type": "cell-based", "details": "0.5 μmol/L GDC-0077 or 1 μmol/L BYL719"}, "[9]": {"test_system": "HCC1954, KPL-4, and HCI-003 PDX", "assay": "Efficacy in PIK3CA-mutant xenograft and PDX models", "assay_type": "in vivo, mouse", "details": "HCC1954, KPL-4, HCI-003 PDX; dosed orally and daily"}, "[10]": {"details": "letrozole ± palbociclib portion of the study; cited from earlier work"}, "[11]": {"test_system": "HER2-negative PIK3CA-mutant breast tumor lines (n = 10)", "assay": "ATP cell viability, HER2-negative PIK3CA-mutant breast lines", "assay_type": "cell-based", "details": "5 days"}, "[12]": {"test_system": "HER2-positive PIK3CA-mutant breast tumor lines (n = 6)", "assay": "ATP cell viability, HER2-positive PIK3CA-mutant breast lines", "assay_type": "cell-based", "details": "HER2 amplified PIK3CA-mutant cell lines, 5 days"}, "[13]": {"test_system": "PIK3CA E545K-mutant MCF7 cells", "assay": "CyQuant growth rate inhibition", "assay_type": "cell-based", "details": "all combination treatments (± E2, ± 0.15 μmol/L palbociclib)"}}, "note": "Entries after “also recorded” stand apart in the source; their conditions may differ.", "data": [{"compound": "CS(=O)(=O)N1CCN(Cc2cc3nc(-c4cccc5[nH]ncc45)nc(N4CCOCC4)c3s2)CC1", "note": "[Pictilisib, 2-(1H-indazol-4-yl)-6-(4-methanesulfonyl-piperazin-1-ylmethyl)-4-morpholin-4-yl-thieno[3,2-d]pyrimidine]", "values": [{"measurement": "potency differential in mutant versus WT isogenic SW48 cells", "setting": "[1]", "result": "comparable EC50"}]}, {"compound": "Cc1nc(-c2cn3c(n2)-c2ccc(-c4cnn(C(C)(C)C(N)=O)c4)cc2OCC3)n(C(C)C)n1", "note": "[Taselisib]", "values": [{"measurement": "potency (EC50) increase in PIK3CA-mutant cells versus parental WT SW48 cells", "setting": "[1]; H1047R or E545K knock-in versus parental", "result": 3, "unit": "fold"}, {"measurement": "mutant-specific (H1047R) p110a peptide by mass spectrometry", "setting": "[2]", "result": "loss of the mutant-specific peptide"}, {"measurement": "p110a degradation at clinically relevant concentrations", "setting": "[3]", "result": "resulted in p110a degradation"}, {"measurement": "p110a protein level in HCC1954 cells", "setting": "[4]", "result": "dose-dependent depletion of p110a protein"}, {"measurement": "membrane-associated p110a in HCC1954 xenograft tumors", "setting": "[5]; 4 hours after a single oral dose of 15 mg/kg", "result": "depleted"}, {"measurement": "cytotoxic effects in primary human hepatocytes", "setting": "[6]", "result": "no cytotoxic effects"}, {"measurement": "p110a protein level in HDQ-P1 cells", "setting": "[7]", "result": "No significant change"}]}, {"compound": "CC(C)n1ncnc1-c1cn2c(n1)-c1ccc(O[C@@H](C)C(N)=O)cc1OCC2", "note": "[GNE-326, (S)-2-((2-(1-Isopropyl-1H-1,2,4-triazol-5-yl)-5,6-dihydrobenzo[f]imidazo[1,2-d][1,4]oxazepin-9-yl)oxy)propanamide]", "values": [{"measurement": "potency differential in mutant versus WT isogenic SW48 cells", "setting": "[1]", "result": "not have a potency differential"}]}, {"compound": "Cc1nc(NC(=O)N2CCC[C@H]2C(N)=O)sc1-c1ccnc(C(C)(C)C(F)(F)F)c1", "note": "[Alpelisib, reference compound]", "values": [{"measurement": "potency differential in mutant versus WT isogenic SW48 cells", "setting": "[1]", "result": "not have a potency differential"}, {"measurement": "cytotoxic effects in primary human hepatocytes", "setting": "[6]", "result": "no cytotoxic effects"}]}, {"compound": "C[C@H](Nc1ccc2c(c1)OCCn1cc(N3C(=O)OC[C@H]3C(F)F)nc1-2)C(N)=O", "note": "[GDC-0077]", "values": [{"measurement": "pAKT / pathway inhibition over the 24-hour treatment time", "setting": "[8]", "result": "sustained inhibition of pAKT; also recorded: sustained pathway inhibition"}, {"measurement": "mutant-specific (H1047R) p110a peptide by mass spectrometry", "setting": "[2]", "result": "loss of the mutant-specific peptide"}, {"measurement": "p110a degradation at clinically relevant concentrations", "setting": "[3]", "result": "resulted in p110a degradation"}, {"measurement": "tumor response at the MTD in PIK3CA-mutant xenograft and PDX models", "setting": "[9]", "result": "tumor regressions"}, {"measurement": "drug–drug interactions", "setting": "[10]", "result": "No drug–drug interactions were observed"}, {"measurement": "p110a protein expression in HCC1954 xenograft tumors", "setting": "[5]; single oral dose of 50 mg/kg", "result": "depleted p110a protein expression for up to 8 hours"}, {"measurement": "fold difference between the mean IC50 values, GDC-0077 versus BYL719", "setting": "[11]", "result": "~6", "unit": "fold"}, {"measurement": "fold difference between the mean IC50 values, GDC-0077 versus BYL719", "setting": "[12]", "result": "~20", "unit": "fold"}, {"measurement": "GDC-0077 concentrations giving negative GR values (cytotoxic response)", "setting": "[13]", "result": "≥ 0.12", "unit": "µmol/L"}, {"measurement": "cytotoxic effects in primary human hepatocytes", "setting": "[6]", "result": "no cytotoxic effects"}]}]}
